According to ChEMBL document CHEMBL5247634, “Design, synthesis and anticancer evaluation of selective 2,4-disubstituted pyrimidine CDK9 inhibitors” (Eur J Med Chem, 2022):

How the values were obtained:
A549 = experiment: Antiproliferative activity against human A549 cells assessed as cell growth inhibition measured after 72 hrs by MTT assay; type: functional, cell-based; conditions: A549, 72 h
HCT-116 = experiment: Antiproliferative activity against human HCT-116 cells assessed as cell growth inhibition measured after 72 hrs by MTT assay; type: functional, cell-based; conditions: HCT-116, 72 h
Homo sapiens = species on record: Homo sapiens; experiment: Selectivity index, ratio of IC50 for CDK2/cyclin A (unknown origin) to IC50 for CDK9/cyclin T1 (unknown origin)
[1] = target: Cyclin-dependent kinase 2/cyclin A (Homo sapiens, UniProt P24941); experiment: Inhibition of CDK2/cyclin A (unknown origin) incubated for 1 hr in presence of ATP by ADP-glo luminescent assay; type: protein-complex assay
PANC-1 = experiment: Antiproliferative activity against human PANC-1 cells assessed as cell growth inhibition measured after 72 hrs by MTT assay; type: functional, cell-based; conditions: PANC-1, 72 h
A-431 = experiment: Antiproliferative activity against human A-431 cells assessed as cell growth inhibition measured after 72 hrs by MTT assay; type: functional, cell-based; conditions: A-431, 72 h
CDK9/cyclin T1 = CDK9/cyclin T1 (Homo sapiens, UniProt P50750); experiment: Inhibition of CDK9/cyclin T1 (unknown origin) using as PDKtide substrate incubated for 1 hr in presence of ATP by ADP-glo luminescent assay; type: protein-complex assay
L02 = experiment: Antiproliferative activity against human L02 cells assessed as cell growth inhibition measured after 72 hrs by MTT assay; type: functional, cell-based; conditions: L02, 72 h
NCI-H1975 = experiment: Antiproliferative activity against human NCI-H1975 cells assessed as cell growth inhibition measured after 72 hrs by MTT assay; type: functional, cell-based; conditions: NCI-H1975, 72 h
[2] = target: Cyclin-dependent kinase 2 (Homo sapiens, UniProt P24941)
Description: Inhibition of CDK2 (unknown origin)

CDK9/cyclin T1, sequence (O60563 whole entry): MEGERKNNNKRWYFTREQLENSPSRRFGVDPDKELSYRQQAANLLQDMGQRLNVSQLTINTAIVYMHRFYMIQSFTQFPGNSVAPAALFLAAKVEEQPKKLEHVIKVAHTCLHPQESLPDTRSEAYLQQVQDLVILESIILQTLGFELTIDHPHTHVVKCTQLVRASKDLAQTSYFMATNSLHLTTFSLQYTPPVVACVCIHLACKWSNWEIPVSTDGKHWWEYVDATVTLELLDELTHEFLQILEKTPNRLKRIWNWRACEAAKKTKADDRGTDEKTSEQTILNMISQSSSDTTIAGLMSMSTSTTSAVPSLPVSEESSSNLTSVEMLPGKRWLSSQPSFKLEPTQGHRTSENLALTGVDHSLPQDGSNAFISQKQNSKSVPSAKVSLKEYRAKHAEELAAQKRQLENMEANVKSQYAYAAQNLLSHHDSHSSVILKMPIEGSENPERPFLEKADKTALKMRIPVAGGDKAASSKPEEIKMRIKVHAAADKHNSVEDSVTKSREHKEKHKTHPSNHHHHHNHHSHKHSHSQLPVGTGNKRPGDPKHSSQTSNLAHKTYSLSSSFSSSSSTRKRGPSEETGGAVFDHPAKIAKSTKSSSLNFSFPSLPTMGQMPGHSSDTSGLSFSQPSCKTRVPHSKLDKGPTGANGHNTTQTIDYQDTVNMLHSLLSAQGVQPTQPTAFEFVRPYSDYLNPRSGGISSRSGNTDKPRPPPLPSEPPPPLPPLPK
CDK9/cyclin T1, sequence (P50750 whole entry): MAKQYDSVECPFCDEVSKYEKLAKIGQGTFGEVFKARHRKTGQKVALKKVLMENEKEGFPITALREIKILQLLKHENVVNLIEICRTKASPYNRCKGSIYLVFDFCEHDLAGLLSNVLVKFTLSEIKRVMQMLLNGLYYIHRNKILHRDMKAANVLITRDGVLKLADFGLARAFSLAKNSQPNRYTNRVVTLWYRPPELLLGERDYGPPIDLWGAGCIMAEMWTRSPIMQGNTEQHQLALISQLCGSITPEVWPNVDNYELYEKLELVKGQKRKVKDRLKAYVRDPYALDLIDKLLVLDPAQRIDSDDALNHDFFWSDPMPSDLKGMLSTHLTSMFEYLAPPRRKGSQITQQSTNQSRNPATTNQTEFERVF

| IC50 (A549) | IC50 (HCT-116) | Selectivity Index (Homo sapiens) | IC50 [1] | IC50 (PANC-1) | IC50 (A-431) | IC50 (CDK9/cyclin T1) | IC50 (NCI-H1975) | IC50 [2] | SMILES | IC50 (L02) |
| --- | --- | --- | --- | --- | --- | --- | --- | --- | --- | --- |
| 1.61 µM | 10.2 µM | 10.4 | 0.924 µM | 0.23 µM | 0.73 µM | 0.0855 µM | 1.74 µM |  | CC(C)(C)OC(=O)N1CCN(C(=O)c2ccc(Nc3nccc(-c4ccc(F)cc4OCc4ccccc4)n3)cc2)CC1 | 5.69 µM |
|  | 0.37 µM | 15.3 | 0.915 µM | 0.56 µM | 0.59 µM | 0.0596 µM | 0.86 µM |  | CC(C)N(CCNC(=O)c1ccc(Nc2nccc(-c3ccc(F)cc3OCc3ccccc3)n2)cc1)C(C)C | 2.08 µM |
| 17.7 µM | 15.3 µM |  |  | 7.19 µM | 6.33 µM |  | 19 µM |  | O=C(NCCO)c1ccc(Nc2nccc(-c3ccc(F)cc3OCc3ccccc3)n2)cc1 | 23.3 µM |
|  | 2.39 µM |  |  | 2.87 µM | 3.36 µM |  | 2.23 µM |  | O=C(c1ccc(Nc2nccc(-c3ccc(F)cc3OCc3ccccc3)n2)cc1)N1CCNCC1 | 5.71 µM |
|  | 0.13 µM | 29.8 | 0.796 µM | 1.08 µM | 1.32 µM | 0.0267 µM | 1.2 µM |  | CCN(CC)CCNC(=O)c1ccc(Nc2nccc(-c3ccc(F)cc3OCc3ccccc3)n2)cc1 | 3.69 µM |
|  |  |  |  |  |  |  |  | > 2 µM | COc1ccccc1-c1cc(Nc2cccc(CS(N)(=O)=O)c2)ncn1 |  |
| 4.67 µM | 12.5 µM |  |  | 4.58 µM | 3.69 µM |  | 2.17 µM |  | COc1cc(F)ccc1-c1ccnc(Nc2ccc(C(=O)NCCN(C)C)cc2)n1 | 20.6 µM |
|  |  |  |  |  |  |  |  | 0.4 µM | CC(C)c1c2cc(-c3ccnc(N[C@H]4CC[C@H](NC5CCOCC5)CC4)n3)ccc2nn1C |  |
| 2.38 µM | 5.56 µM |  |  | 2.48 µM | 1.05 µM |  | 1.21 µM |  | CN1CCN(C(=O)c2ccc(Nc3nccc(-c4ccc(F)cc4OCc4ccccc4)n3)cc2)CC1 | 5.28 µM |
| 10.1 µM | 16.3 µM |  |  | 9.41 µM | 6.7 µM |  | 9.61 µM |  | CNCCNC(=O)c1ccc(Nc2nccc(-c3ccc(F)cc3OC)n2)cc1 | 22.7 µM |
